According to patent US6268377A, “Method for treating androgen-related conditions” (Merck & Co., Inc., priority 1999, dated 2001):
“Also recorded” adds a separate entry of the source. Where two headings read alike, the source gives them in different places.

Tests used:
[1] = system: men with clinical benign prostatic hyperplasia (BPH); assay: Four-year double-blind placebo-controlled clinical study of finasteride, analysed by concomitant calcium channel blocker use; assay type: in vivo, human; conditions: for Hazard Ratio (95% CI), AUR / Hazard Ratio (95% CI), Precipitated AUR / Hazard Ratio (95% CI), Spontaneous AUR / Hazard Ratio (95% CI), Surgery / Hazard Ratio (95% CI), Surgery and AUR: finasteride vs placebo; for Urologic events: AUR (incidence) / Urologic events: Precipitated AUR (incidence) / Urologic events: Spontaneous AUR (incidence) / Urologic events: Surgery (incidence) / Urologic events: Surgery and AUR (incidence): 5 mg finasteride daily, four-year study
Protocol: A total of 3040 men with clinical benign prostatic hyperplasia (BPH) diagnosed on the basis of moderate-to-severe symptoms, a decreased peak urinary flow rate (less than 15 mL/sec with a voided volume of 150 mL or more) and an enlarged prostate gland by digital rectal examination (DRE) were enrolled in a four-year study comparing finasteride with placebo. Men receiving alpha blocking agents or antiandrogens, and men with a history of chronic prostatitis, recurrent urinary tract infections, prostate or bladder cancer or surgery, or a serum prostate specific antigen (PSA) over 10 ng/mL were excluded. Men with serum PSA concentrations between 4.0 and 9.9 ng/mL had to have a negative prostate biopsy prior to enrollment.
After a one-month single-blind placebo lead-in, men were randomly assigned to receive placebo or 5 mg of finasteride (17β-(N-tert-butylcarbamoyl)-3-oxo-4-aza-5α-androst-1-en-3-one)daily in a four year, double-blind placebo-controlled study. BPH-related outcomes including symptoms, bothersomeness, adverse events and urinary flow rates, were assessed every 4 months. Serum PSA was measured every 4 months in the first year and then every 8 months at a central laboratory. Physical examination and routine hematological and serum chemistry tests were performed yearly. Magnetic resonance imaging (MRI) was performed at baseline and subsequently yearly in a subset of 10% of patients. All MRI images were read by a central radiologist blinded to treatment allocation and time of imaging.
Acute urinary retention (AUR) and surgery for BPH were predefined secondary end-points. The endpoint committee, blinded to treatment group, reviewed all study-related documents related to episodes of acute urinary retention, and all prostate surgeries for BPH, excluding surgery for prostate cancer. The endpoint committee classified episodes of AUR as spontaneous versus precipitated (when contributing factors such as urinary tract infection, surgery anesthesia, ingestion of alpha sympathomimetic drugs or anticholinergics were identified).
For a relatively clean comparison, data from patients in categories (a) and (b) were analyzed and patients in category (c) were excluded.

5α-reductase 1 = conditions: isozyme predominating in sebaceous glands of facial and skin tissue; G. Harris et al. 1992; cited from earlier work
5α-reductase 2 = conditions: isozyme predominating in the prostate, cited from earlier work
[2] = finasteride treated patients also on calcium channel blockers vs not on calcium channel blockers
[3] = patients who did not take a calcium channel blocker
[4] = patients who took a calcium channel blocker for more than 365 days
[5] = patients who did not take a calcium channel blocker, N = 1181
[6] = patients who took a calcium channel blocker for more than 365 days, N = 236

SMILES: CC(C)(C)NC(=O)[C@H]1CC[C@H]2[C@@H]3CC[C@H]4NC(=O)C=C[C@]4(C)[C@H]3CC[C@]12C [Finasteride, 17β-(N-tert-butylcarbamoyl)-3-oxo-4-aza-5α-androst-1-ene-3-one]
- rate of improvement in symptom score by month 16 ([1]; finasteride only group): continued to increase
- change of PSA (prostate specific antigen) versus time in the study ([1]; finasteride plus calcium channel blocker for more than 365 days, compared with finasteride only and placebo groups (FIG. 1)): greater decrease in PSA; also recorded: greatest decrease in PSA
- change in Quasi-AUA symptom score versus time in the study ([1]; finasteride plus calcium channel blocker for more than 365 days, compared with finasteride only and placebo groups (FIG. 2)): initally improved much faster; also recorded: greatest decrease in symptom score
- change in maximum urinary flow rate versus time in the study ([1]; finasteride plus calcium channel blocker for more than 365 days, compared with finasteride only and placebo groups (FIG. 3)): greater increase in maximum urinary flow rate; also recorded: greatest increase in maximum flow rate after 12 months
- change in prostate volume versus time in the study ([1]; finasteride plus calcium channel blocker for more than 365 days, compared with finasteride only and placebo groups (FIG. 4)): greater decrease; also recorded: greatest decrease in prostate volume
- rate of improvement in symptom score by month 16 ([1]; finasteride plus calcium channel blocker group): decreased rate of improvement in symptom score
- incidence of spontaneous acute urinary retention (AUR) (comparison) [1, 2]: lower
- incidence of urologic surgery (comparison) [1, 2]: lower
- Hazard Ratio (95% CI), AUR [1, 3]: 0.44 (0.30 to 0.64)
- Hazard Ratio (95% CI), Precipitated AUR [1, 3]: 0.55 (0.31 to 0.99)
- Hazard Ratio (95% CI), Spontaneous AUR [1, 3]: 0.38 (0.23 to 0.62)
- Hazard Ratio (95% CI), Surgery [1, 3]: 0.42 (0.31 to 0.57)
- Hazard Ratio (95% CI), Surgery and AUR [1, 3]: 0.48 (0.37 to 0.62)
- Hazard Ratio (95% CI), AUR [1, 4]: 0.46 (0.20 to 1.10)
- Hazard Ratio (95% CI), Precipitated AUR [1, 4]: 0.50 (0.19 to 1.31)
- Hazard Ratio (95% CI), Spontaneous AUR [1, 4]: 0.24 (0.05 to 1.21)
- Hazard Ratio (95% CI), Surgery [1, 4]: 0.55 (0.25 to 1.22)
- Hazard Ratio (95% CI), Surgery and AUR [1, 4]: 0.53 (0.28 to 1.00)
- Urologic events: AUR (incidence) [1, 5]: 2.6%
- Urologic events: Precipitated AUR (incidence) [1, 5]: 1.4%
- Urologic events: Spontaneous AUR (incidence) [1, 5]: 1.4%
- Urologic events: Surgery (incidence) [1, 5]: 4.4%
- Urologic events: Surgery and AUR (incidence) [1, 5]: 6.4%
- Urologic events: AUR (incidence) [1, 6]: 3.0%
- Urologic events: Precipitated AUR (incidence) [1, 6]: 2.5%
- Urologic events: Spontaneous AUR (incidence) [1, 6]: 0.4%
- Urologic events: Surgery (incidence) [1, 6]: 3.8%
- Urologic events: Surgery and AUR (incidence) [1, 6]: 5.9%
- sensitivity of 5α-reductase type 1 to finasteride (5α-reductase 1): relatively insensitive
- inhibition of 5α-reductase type 2 (human prostate enzyme) (5α-reductase 2): potent inhibitor
- inhibition of 5α-reductase type 2 (human prostate enzyme) (5α-reductase 2; listed as finasteride): potently inhibited
